Literature values, collected in patent US7700778B2, “Acylated piperidine derivatives as melanocortin-4 receptor agonists” (Merck Sharp & Dohme Corp., priority 2001, dated 2010).

Experiments:
[1] = tested on: males with psychogenic erectile dysfunction
[2] = in vivo, po

| Compound | duration of action ([1]; in vivo) | time to onset of erection ([1]; in vivo) | response rate ([1]; injected intramuscularly or subcutaneously) | absorption into the systemic circulation [2] | duration of effect (men; after an oral dose) | onset of action (men; after an oral dose) | share of men/patients in whom effective (adequate response) (men; oral) |
| --- | --- | --- | --- | --- | --- | --- | --- |
| Ac-Nle-c[Asp-His-DPhe-Arg-Trp-Lys]-NH2 [MT-II] | approximately 2.5 hours | 10 to 20 min | 75% | not absorbed into the systemic circulation | – | – | – |
| Cc1ccc(N(CC2=NCCN2)c2cccc(O)c2)cc1 [phentolamine] | – | – | – | – | 2 h | 5 to 30 min | 35-40% |
